The source made the active and inactive calls. No cut-off for these calls is given here.
Legend:
[1] = target: T1, Lysine-specific histone demethylase 1A (Homo sapiens, UniProt O60341); assay: Inhibition of recombinant LSD1 (unknown origin) extracted from Escherichia coli BL21 (DE3) using H3K4me2 peptide as substrate in presence of […] by Amplex Red assay
[2] = target: T1, Lysine-specific histone demethylase 1A; assay: Induction of thermal stabilization of LSD1 in human MKN-45 cells incubated for 5 days followed by heat exposure at 40 to 55 degreeC by CETSA; format: cell-based; settings: time 5.0 day
[3] = target: T1, Lysine-specific histone demethylase 1A; assay: Inhibition of LSD1 in human MKN-45 cells; format: cell-based
[4] = target: T1, Lysine-specific histone demethylase 1A; assay: Inhibition of LSD1 in human MKN-45 cells assessed as decrease in demethylation of H3K4me1 incubated for 5 days by Western blot analysis; format: cell-based; settings: dose 1-4 µM, time 5.0 day
[5] = target: T1, Lysine-specific histone demethylase 1A; assay: Inhibition of LSD1 in human MKN-45 cells assessed as decrease in demethylation of H3K4me2 incubated for 5 days by Western blot analysis; format: cell-based; settings: dose 1-4 µM, time 5.0 day
MKN-45 [6] = assay: Effect on H3K4me3 demethylation in human MKN-45 cells at 1 to 4 uM incubated for 5 days by Western blot analysis; format: functional, cell-based; settings: dose 1-4 µM, time 5.0 day
MKN-45 [7] = assay: Effect on H3K4me1 demethylation in human MKN-45 cells harboring LSD1-KO at 1 to 4 uM incubated for 5 days by Western blot analysis; format: functional, cell-based; settings: dose 1-4 µM, time 5.0 day
MKN-45 [8] = assay: Effect on H3K4me2 demethylation in human MKN-45 cells harboring LSD1-KO at 1 to 4 uM incubated for 5 days by Western blot analysis; format: functional, cell-based; settings: dose 1-4 µM, time 5.0 day
MKN-45 [9] = assay: Inhibition of cell invasion in human MKN-45 cells at 1 to 4 uM incubated for 2 days by crystal violet staining based transwell assay; format: functional; settings: dose 1-4 µM, time 2.0 day
[10] = target: T1, Lysine-specific histone demethylase 1A; assay: Inhibition of LSD1 in human MKN-45 cells assessed as reduction in PD-L1 level incubated for 5 days by Western blot analysis; format: cell-based; settings: dose 1-4 µM, time 5.0 day
MKN-45 [11] = assay: Inhibition of cell migration in human MKN-45 cells at 1 to 4 uM incubated up to 48 hrs by wound healing assay; format: functional, cell-based; settings: dose 1-4 µM
[12] = target: Lysine-specific histone demethylase 1A (Mus musculus) (UniProt Q6ZQ88); assay: Inhibition of LSD1 in mouse MFC cells assessed as reduction in PD-L1 level incubated for 5 days by Western blot analysis; format: cell-based; settings: time 5.0 day
[13] = target: T1, Lysine-specific histone demethylase 1A; assay: Inhibition of LSD1 in human MKN-45 cells assessed as accumulation of membrane PD-L1 at 1 uM incubated for 5 days (reference value: 58.4 %); format: cell-based; design: scale not given: the % may be the effect or the level left; settings: time 5.0 day
[14] = target: T1, Lysine-specific histone demethylase 1A; assay: Inhibition of LSD1 in human MKN-45 cells assessed as accumulation of membrane PD-L1 at 2 uM incubated for 5 days; format: cell-based; design: scale not given: the % may be the effect or the level left; settings: time 5.0 day
[15] = target: T1, Lysine-specific histone demethylase 1A; assay: Inhibition of LSD1 in human MKN-45 cells assessed as accumulation of membrane PD-L1 at 4 uM incubated for 5 days (reference value: 58.4 %); format: cell-based; design: scale not given: the % may be the effect or the level left; settings: time 5.0 day
[16] = target: Lysine-specific histone demethylase 1A (Mus musculus) (UniProt Q6ZQ88); assay: Inhibition of LSD1 in mouse MFC cells assessed as accumulation of membrane PD-L1 at 1 uM incubated for 5 days (reference value: 63.0 %); format: cell-based; design: scale not given: the % may be the effect or the level left; settings: time 5.0 day
[17] = target: Lysine-specific histone demethylase 1A (Mus musculus) (UniProt Q6ZQ88); assay: Inhibition of LSD1 in mouse MFC cells assessed as accumulation of membrane PD-L1 at 2 uM incubated for 5 days; format: cell-based; design: scale not given: the % may be the effect or the level left; settings: time 5.0 day
[18] = target: Lysine-specific histone demethylase 1A (Mus musculus) (UniProt Q6ZQ88); assay: Inhibition of LSD1 in mouse MFC cells assessed as accumulation of membrane PD-L1 at 4 uM incubated for 5 days (reference value: 63.0 %); format: cell-based; design: scale not given: the % may be the effect or the level left; settings: time 5.0 day
MKN-45 [19] = assay: Effect on PD-L1 expression in human MKN-45 cells harboring LSD1-KO at 1 to 4 uM incubated for 5 days by Western blot analysis; format: functional, cell-based; settings: dose 1-4 µM, time 5.0 day
[20] = target: Programmed cell death protein 1/Programmed cell death 1 ligand 1 (Homo sapiens) (UniProt Q15116+Q9NZQ7); assay: Inhibition of PD-1/PD-L1 interaction in human MKN-45 cells pretreated for 5 days followed by PD-1-Fc addition by DAPI staining based confocal microscopy; format: cell-based; settings: dose 1-4 µM, time 5.0 day
MKN-45 [21] = assay: Induction of T-cell killing response in human MKN-45 cells assessed as decrease in cell viability pretreated for 5 days followed by co-culturing with human PBMC-derived T cells for 4 days by CCK8 assay; format: functional, cell-based; settings: dose 1-4 µM, time 5.0 day
MKN-45 [22] = assay: Induction of T-cell killing response in human MKN-45 cells assessed as increase in IFN-gamma secretion at 1 to 4 uM pretreated for 5 days followed by co-culturing with human PBMC-derived T cells for 4 days by ELISA; format: functional, cell-based; settings: dose 1-4 µM, time 5.0 day
MKN-45 [23] = assay: Induction of T-cell killing response in human MKN-45 cells assessed as increase in IL-2 secretion at 1 to 4 uM pretreated for 5 days followed by co-culturing with human PBMC-derived T cells for 4 days by ELISA; format: functional, cell-based; settings: dose 1-4 µM, time 5.0 day
MKN-45 [24] = assay: Induction of T-cell killing response in human MKN-45 cells harboring LSD1-KO assessed as decrease in cell viability at 1 to 4 uM pretreated for 5 days followed by co-culturing with human PBMC-derived T cells for 4 days by CCK8 assay; format: functional, cell-based; settings: dose 1-4 µM, time 5.0 day
MFC [25] = assay: Induction of T-cell killing response in mouse MFC cells assessed as decrease in cell viability at 1 to 4 uM pretreated for 5 days followed by co-culturing with human PBMC-derived T cells for 4 days by CCK8 assay; format: functional, cell-based; settings: dose 1-4 µM, time 5.0 day
MFC [26] = assay: Induction of T-cell killing response in mouse MFC cells assessed as increase in IFN-gamma secretion at 1 to 4 uM pretreated for 5 days followed by co-culturing with human PBMC-derived T cells for 4 days by ELISA; format: functional, cell-based; settings: dose 1-4 µM, time 5.0 day
[27] = Toxicity in 615 mouse implanted with mouse MFC cells assessed as body weight change at 10 to 50 mg/kg, IG treated daily for 14 days; format: organism-based; settings: in vivo, po, 336 h, dose 10-50 mg/kg, time 14 day
MFC [28] = assay: Antitumor activity against mouse MFC cells implanted in 615 mouse assessed as tumor growth suppression treated intragastrically daily for 14 days; format: functional, cell-based; settings: dose 10-50 mg/kg, route ig, time 14.0 day
MFC [29] = assay: Antitumor activity against mouse MFC cells implanted in 615 mouse assessed as decrease in tumor weight at 10 to 50 mg/kg, IG treated daily for 14 days; format: functional, organism-based; settings: dose 10-50 mg/kg, time 14.0 day
[30] = Toxicity in 615 mouse implanted with mouse MFC cells assessed as histological change in heart at 10 to 50 mg/kg, IG treated daily for 14 days by H and E staining based analysis; format: organism-based; settings: in vivo, po, 336 h, dose 10-50 mg/kg, time 14 day
[31] = Toxicity in 615 mouse implanted with mouse MFC cells assessed as histological change in liver at 10 to 50 mg/kg, IG treated daily for 14 days by H and E staining based analysis; format: organism-based; settings: in vivo, po, 336 h, dose 10-50 mg/kg, time 14 day
[32] = Toxicity in 615 mouse implanted with mouse MFC cells assessed as histological change in spleen at 10 to 50 mg/kg, IG treated daily for 14 days by H and E staining based analysis; format: organism-based; settings: in vivo, po, 336 h, dose 10-50 mg/kg, time 14 day
[33] = Toxicity in 615 mouse implanted with mouse MFC cells assessed as histological change in lung at 10 to 50 mg/kg, IG treated daily for 14 days by H and E staining based analysis; format: organism-based; settings: in vivo, po, 336 h, dose 10-50 mg/kg, time 14 day
[34] = Toxicity in 615 mouse implanted with mouse MFC cells assessed as histological change in kidney at 10 to 50 mg/kg, IG treated daily for 14 days by H and E staining based analysis; format: organism-based; settings: in vivo, po, 336 h, dose 10-50 mg/kg, time 14 day
MFC [35] = assay: Antitumor activity against mouse MFC cells implanted in 615 mouse assessed as decrease Ki67 expression at 10 to 50 mg/kg, IG treated daily for 14 days by IHC analysis; format: functional, organism-based; settings: dose 10-50 mg/kg, time 14.0 day
MFC [36] = assay: Antitumor activity against mouse MFC cells implanted in 615 mouse assessed as decrease PD-L1 expression treated intragastrically daily for 14 days by Western blot analysis; format: functional, cell-based; settings: dose 10-50 mg/kg, route ig, time 14.0 day
Mus musculus [37] = assay: In vivo induction of T-cell response in mouse MFC cells implanted in 615 mouse assessed as increase in IFN-gamma mRNA level at 10 to 50 mg/kg, IG treated daily for 14 days by PCR analysis; format: functional, organism-based; settings: dose 10-50 mg/kg, time 14.0 day
Mus musculus [38] = assay: In vivo induction of T-cell response in mouse MFC cells implanted in 615 mouse assessed as increase in IL-2 mRNA level at 10 to 50 mg/kg, IG treated daily for 14 days by PCR analysis; format: functional, organism-based; settings: dose 10-50 mg/kg, time 14.0 day
MFC [39] = assay: In vivo induction of T-cell infiltration in mouse MFC cells implanted in 615 mouse assessed as increase in CD3+ CD8+ T cells at 10 mg/kg, IG treated daily for 14 days by flow cytometry (reference value: 2.79 %); format: functional; settings: time 14 day
MFC [40] = assay: In vivo induction of T-cell infiltration in mouse MFC cells implanted in 615 mouse assessed as increase in CD3+ CD8+ T cells at 25 mg/kg, IG treated daily for 14 days by flow cytometry (reference value: 2.79 %); format: functional; settings: time 14 day
MFC [41] = assay: In vivo induction of T-cell infiltration in mouse MFC cells implanted in 615 mouse assessed as increase in CD3+ CD8+ T cells at 50 mg/kg, IG treated daily for 14 days by flow cytometry (reference value: 2.79 %); format: functional; settings: time 14 day

IC50 [1]: 80 nM
Activity [2]: Active
IC50 [3]: 80.3 nM
inhibition [4]: Dose-dependent-effect
inhibition [5]: Dose-dependent-effect
inhibition [10]: Dose-dependent-effect
inhibition [12]: Dose-dependent-effect
Activity [13]: 49.5%
Activity [14]: 47.3%
Activity [15]: 39.1%
Activity [16]: 59.7%
Activity [17]: 45.6%
Activity [18]: 16%
Compound: C=C1C(=O)OCC1C(O)c1cn(S(=O)(=O)c2ccc(N(C)C)c([N+](=O)[O-])c2)c2ccc(Cl)cc12 (stereo unspecified)
Activity (MKN-45 [6]): No effect
Activity (MKN-45 [7]): No effect
Activity (MKN-45 [8]): No effect
inhibition (MKN-45 [9]): Active; Effect Was Better Than Ory-1001
inhibition (MKN-45 [11]): Active; Effect Was Better Than Ory-1001
Activity (MKN-45 [19]): No effect
inhibition [20]: Dose-dependent-effect
Activity (MKN-45 [21]): Dose-dependent-effect
Activity (MKN-45 [22]): Active
Activity (MKN-45 [23]): Active
Activity (MKN-45 [24]): inactive
Activity (MFC [25]): Active
Activity (MFC [26]): Active
Activity [27]: Non-toxic
Activity (MFC [28]): Dose-dependent-effect
Activity (MFC [29]): Active
Activity [30]: Non-toxic
Activity [31]: Non-toxic
Activity [32]: Non-toxic
Activity [33]: Non-toxic
Activity [34]: Non-toxic
Activity (MFC [35]): Active
Activity (MFC [36]): Dose-dependent-effect
Activity (Mus musculus [37]): Active
Activity (Mus musculus [38]): Active
Activity (MFC [39]): 4.92%
Activity (MFC [40]): 6.46%
Activity (MFC [41]): 16.6%
